The NIST ThermoML archive (doi:10.1016/j.tca.2006.02.029)

Assay: excess molar enthalpy (molar enthalpy of mixing); xn = mol fraction of the nth substance listed
Conditions: 1065 K, 101 kPa, Liquid, Drop calorimetry

[Fe] [iron] + [Sb]
Conditions	excess molar enthalpy [kcal/mol]
x1 = 0.0023	0.0117
x1 = 0.0025	0.00933
x1 = 0.0049	0.0176
x1 = 0.0055	0.0233
x1 = 0.0075	0.0279
x1 = 0.008	0.0317
x1 = 0.0102	0.0359
x1 = 0.0114	0.0427
x1 = 0.0129	0.0455
x1 = 0.0135	0.0475
x1 = 0.0144	0.0535
x1 = 0.0148	0.0479
x1 = 0.0157	0.0538
x1 = 0.0187	0.0674
x1 = 0.0188	0.0624
x1 = 0.0232	0.079
x1 = 0.0271	0.0916
x1 = 0.029	0.0888
x1 = 0.0292	0.0913
x1 = 0.0316	0.105
x1 = 0.0359	0.118
x1 = 0.0407	0.131
x1 = 0.0442	0.131
x1 = 0.0445	0.128
x1 = 0.0455	0.145
x1 = 0.0591	0.165
x1 = 0.0609	0.168
x1 = 0.0762	0.201
x1 = 0.0765	0.204
x1 = 0.0942	0.229
x1 = 0.096	0.243
x1 = 0.1139	0.259
x1 = 0.1167	0.283
x1 = 0.1336	0.313
x1 = 0.1353	0.299
